Experimental data from ChEMBL document CHEMBL1201862, “PubChem BioAssay data set” (2004).
Active and inactive are the calls of the source.

Assays:
[1] = target: T1, Estrogen receptor (Homo sapiens, UniProt P03372);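 note: potency for inhibiting coactivator peptide recruitment to the receptor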
T1 sequence (P03372 whole entry): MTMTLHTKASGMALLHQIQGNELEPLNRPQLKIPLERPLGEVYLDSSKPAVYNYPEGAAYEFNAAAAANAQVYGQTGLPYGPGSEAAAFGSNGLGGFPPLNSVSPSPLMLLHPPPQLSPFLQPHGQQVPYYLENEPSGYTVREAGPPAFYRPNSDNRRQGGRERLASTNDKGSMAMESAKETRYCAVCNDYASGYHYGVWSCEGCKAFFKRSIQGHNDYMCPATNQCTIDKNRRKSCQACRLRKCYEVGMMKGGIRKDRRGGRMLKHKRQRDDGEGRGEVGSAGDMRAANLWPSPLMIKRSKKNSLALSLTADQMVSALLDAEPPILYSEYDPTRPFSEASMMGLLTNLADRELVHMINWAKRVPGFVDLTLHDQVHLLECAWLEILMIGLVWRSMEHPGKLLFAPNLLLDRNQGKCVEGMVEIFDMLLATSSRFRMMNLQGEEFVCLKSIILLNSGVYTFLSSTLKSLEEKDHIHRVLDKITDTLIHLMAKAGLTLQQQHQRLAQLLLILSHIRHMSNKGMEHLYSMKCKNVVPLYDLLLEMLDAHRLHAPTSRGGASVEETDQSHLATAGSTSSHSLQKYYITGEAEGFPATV

[2] = reduction of Shn3 3'UTR-driven luciferase in osteoblasts – cell-based, Clone20 osteoblasts, firefly luciferase, cherry-picked, dose response (AID 624132); type: functional;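 note: firefly luciferase luminescence from reporter carrying the Shn3 3'UTR in osteoblasts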
[3] = target: Cytochrome P450 3A4 (Homo sapiens, UniProt P08684);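 note: CYP3A4 tested as one member of a cytochrome P450 panel screen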
[4] = HEK-293T viability loss after treatment – luminescence, T-cell screen hits, cytotoxicity control for TCR NF-kB inhibitor project, dose response (AID 489026); type: functional, cell-based;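 note: cells exposed to compound about 14 hours before the viability readout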
[5] = Luminescence-based dose response cell-based high throughput screening assay for cytotoxic compounds using the IEC-6 intestinal epithelial cell line. [Related pubchem assays: 1858 (Summary AID.), 1825 (Counterscreen.), 1907 (Confirmation screen.)]; type: functional
[6] = NIH-3T3 fibroblast cytotoxicity, dose response, cytotoxicity control, cell-based, fluorescence, Alamar Blue, secondary assay (AID 2327); type: functional;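 note: NIH-3T3 mouse fibroblasts cultured with fluconazole at 8 µg/mL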
[7] = target: Sphingosine 1-phosphate receptor 2 (Homo sapiens, UniProt O95136); assay: Dose Response Cell Based Assay for Antagonists of the S1P2 Receptor. [Related pubchem assays: 856, 736 ]; type: functional
[8] = loss of viability in HepG2 cells – cell-based, CellTiter-Glo, cherry-picked, cytotoxicity control for Shn3 inhibitor project, dose response (AID 624134); type: functional
[9] = luciferase reporter signal suppression in cells – H4 neuroglioma cells, luminescence, dose response (AID 1990); type: functional, cell-based
[10] = target: T2, Cytochrome P450 1A2 (Homo sapiens, UniProt P05177);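 note: PubChem cytochrome P450 panel assay, CYP1A2 panel member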
T2 sequence (P05177 whole entry): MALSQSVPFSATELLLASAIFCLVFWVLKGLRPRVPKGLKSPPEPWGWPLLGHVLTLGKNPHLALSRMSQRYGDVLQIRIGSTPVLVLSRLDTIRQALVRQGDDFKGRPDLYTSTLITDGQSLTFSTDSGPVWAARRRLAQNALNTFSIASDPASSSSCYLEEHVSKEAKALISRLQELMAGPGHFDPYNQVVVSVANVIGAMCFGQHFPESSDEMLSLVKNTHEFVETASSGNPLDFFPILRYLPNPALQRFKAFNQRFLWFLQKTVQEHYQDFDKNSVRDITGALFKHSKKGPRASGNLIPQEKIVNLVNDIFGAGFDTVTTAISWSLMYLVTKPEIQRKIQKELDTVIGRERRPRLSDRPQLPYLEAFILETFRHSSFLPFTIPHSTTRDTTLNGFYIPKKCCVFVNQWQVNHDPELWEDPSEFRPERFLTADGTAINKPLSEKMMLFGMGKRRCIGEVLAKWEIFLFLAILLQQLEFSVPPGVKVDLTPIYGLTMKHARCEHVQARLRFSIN

[11] = Luminescence Cell-Based Dose Response HTS to Identify Inhibitors of 5'UTR Stem-Loop Driven Prion Protein mRNA Translation in H4 Neuroglioblastoma Cells. [Related pubchem assays: 1827 (Project Summary), 1813 (Primary HTS)]; type: functional
[12] = system: INS1; assay: INS-1E survival protection against cytokine death – cell-based, luminescence, retest, dose response (AID 449756); type: functional; conditions: Rattus norvegicus;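 note: cell death triggered by IL-1 beta plus TNF-alpha plus IFN-gamma mixture; protective hits raise ATP signal compared with cytokine alone wells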
[13] = non-specific 3'UTR reporter inhibition in Clone20-Shn3RL – cell-based, Renilla luciferase, cherry-picked, counter-screen for Shn3 inhibitor project, dose response (AID 624133); type: functional
[14] = fluconazole-exposed Candida albicans growth modulators – fluorescence, retest, confirmation (AID 2467); type: functional, cell-based
[15] = target: Cytochrome P450 2C19 (Homo sapiens, UniProt P33261); assay: Cytochrome panel assay with activity outcomes. Panel member name: p450-cyp2c19 Compounds with AC50 equal or less than 10 uM are considered active; type: functional; conditions: read-out: AC50
[16] = alpha-synuclein stem-loop luciferase translation blockers – H4 neuroglioma cells, luminescence, confirmation (AID 1988); type: functional, cell-based
[17] = A cytotoxicity screen of small molecule inhibitors of the PhoP region in Salmonella typhi identified in the primary screen. [Related pubchem assays: 1850, 1864, 1985 ]; type: functional
[18] = target: Cytochrome P450 2D6 (Homo sapiens, UniProt P10635); assay: qHTS Assay for Inhibitors and Substrates of Cytochrome P450 2D6. [Related pubchem assays: 410 ]; type: ADME; conditions: read-out: Potency
[19] = target: Cytochrome P450 2C9 (Homo sapiens, UniProt P11712); conditions: Potency
[20] = target: T3, Hexokinase HKDC1 (Homo sapiens, UniProt Q2TB90); assay: inhibition of HKDC1 glucose phosphorylation – biochemical, W721R variant, dose response (AID 504729); type: functional
T3 sequence (Q2TB90 whole entry): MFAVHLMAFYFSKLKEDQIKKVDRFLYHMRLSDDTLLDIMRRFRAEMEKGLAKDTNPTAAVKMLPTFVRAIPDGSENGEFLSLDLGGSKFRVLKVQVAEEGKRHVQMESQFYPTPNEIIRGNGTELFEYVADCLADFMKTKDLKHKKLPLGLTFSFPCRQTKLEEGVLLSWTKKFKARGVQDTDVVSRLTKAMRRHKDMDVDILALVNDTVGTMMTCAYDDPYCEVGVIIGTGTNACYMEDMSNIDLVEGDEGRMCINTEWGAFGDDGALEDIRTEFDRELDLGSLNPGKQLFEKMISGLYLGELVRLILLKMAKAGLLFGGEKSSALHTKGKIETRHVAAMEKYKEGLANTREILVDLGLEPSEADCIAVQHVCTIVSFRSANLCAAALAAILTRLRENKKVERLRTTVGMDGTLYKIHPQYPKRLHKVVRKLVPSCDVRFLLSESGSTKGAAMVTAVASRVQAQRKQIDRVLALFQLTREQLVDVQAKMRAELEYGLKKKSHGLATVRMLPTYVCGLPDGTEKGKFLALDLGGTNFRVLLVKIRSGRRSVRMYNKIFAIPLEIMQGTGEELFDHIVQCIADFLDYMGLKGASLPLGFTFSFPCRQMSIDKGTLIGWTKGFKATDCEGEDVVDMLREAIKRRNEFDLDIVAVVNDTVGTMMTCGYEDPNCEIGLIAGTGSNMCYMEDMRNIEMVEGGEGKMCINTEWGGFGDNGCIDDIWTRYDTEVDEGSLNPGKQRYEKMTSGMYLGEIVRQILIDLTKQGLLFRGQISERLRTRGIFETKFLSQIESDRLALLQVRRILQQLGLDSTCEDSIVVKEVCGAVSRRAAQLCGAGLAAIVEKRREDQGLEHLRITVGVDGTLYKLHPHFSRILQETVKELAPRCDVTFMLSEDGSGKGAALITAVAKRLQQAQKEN

[21] = target: X-box-binding protein 1 (Homo sapiens, UniProt P17861); type: functional, Cricetulus griseus;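 note: confirmatory dose-response counter-screen serving a CHOP assay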
[22] = target: T4, Corticotropin-releasing factor receptor 2/Corticotropin-releasing factor-binding protein (Homo sapiens, UniProt P24387+Q13324); assay: activators of CRF receptor 2 with binding protein – uHTS hits, confirmation (AID 602473); type: functional; conditions: read-out: EC50_Mean
T4 sequence (Q13324 whole entry): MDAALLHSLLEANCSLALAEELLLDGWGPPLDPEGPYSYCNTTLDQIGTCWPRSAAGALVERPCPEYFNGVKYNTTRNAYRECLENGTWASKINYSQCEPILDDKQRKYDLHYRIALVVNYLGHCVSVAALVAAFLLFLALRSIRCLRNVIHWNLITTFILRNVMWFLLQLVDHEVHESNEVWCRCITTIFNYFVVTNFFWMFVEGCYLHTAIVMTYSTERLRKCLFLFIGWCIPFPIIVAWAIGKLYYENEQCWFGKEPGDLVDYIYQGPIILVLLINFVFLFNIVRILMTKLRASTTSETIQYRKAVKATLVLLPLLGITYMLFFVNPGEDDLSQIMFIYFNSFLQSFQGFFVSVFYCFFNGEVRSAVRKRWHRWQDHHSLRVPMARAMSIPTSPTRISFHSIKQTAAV
T4 sequence (P24387 whole entry): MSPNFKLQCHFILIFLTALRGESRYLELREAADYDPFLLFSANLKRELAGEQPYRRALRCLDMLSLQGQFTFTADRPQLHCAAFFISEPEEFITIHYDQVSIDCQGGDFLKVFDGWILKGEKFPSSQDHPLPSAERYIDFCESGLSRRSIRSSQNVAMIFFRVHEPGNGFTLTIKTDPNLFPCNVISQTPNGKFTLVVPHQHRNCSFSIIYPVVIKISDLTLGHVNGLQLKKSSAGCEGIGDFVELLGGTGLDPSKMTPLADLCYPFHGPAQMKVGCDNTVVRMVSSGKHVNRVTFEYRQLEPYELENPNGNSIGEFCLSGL

[23] = target: Peroxisome proliferator-activated receptor gamma/Nuclear receptor coactivator 1 (Homo sapiens, UniProt P37231); type: functional;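 note: agonist potency as compounds enhance coactivator SRC-1 recruitment to PPARgamma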
[24] = target: Peroxisome proliferator-activated receptor gamma/Nuclear receptor coactivator 3 (Homo sapiens, UniProt P37231); type: functional;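 note: agonist potency for raising coactivator recruitment to the receptor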
[25] = target: Peroxisome proliferator-activated receptor gamma/Nuclear receptor coactivator 2 (Homo sapiens, UniProt P37231); type: functional;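 note: agonist potency for raising coactivator recruitment to the receptor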
Peroxisome proliferator-activated receptor gamma/Nuclear receptor coactivator 2, sequence (P37231 whole entry): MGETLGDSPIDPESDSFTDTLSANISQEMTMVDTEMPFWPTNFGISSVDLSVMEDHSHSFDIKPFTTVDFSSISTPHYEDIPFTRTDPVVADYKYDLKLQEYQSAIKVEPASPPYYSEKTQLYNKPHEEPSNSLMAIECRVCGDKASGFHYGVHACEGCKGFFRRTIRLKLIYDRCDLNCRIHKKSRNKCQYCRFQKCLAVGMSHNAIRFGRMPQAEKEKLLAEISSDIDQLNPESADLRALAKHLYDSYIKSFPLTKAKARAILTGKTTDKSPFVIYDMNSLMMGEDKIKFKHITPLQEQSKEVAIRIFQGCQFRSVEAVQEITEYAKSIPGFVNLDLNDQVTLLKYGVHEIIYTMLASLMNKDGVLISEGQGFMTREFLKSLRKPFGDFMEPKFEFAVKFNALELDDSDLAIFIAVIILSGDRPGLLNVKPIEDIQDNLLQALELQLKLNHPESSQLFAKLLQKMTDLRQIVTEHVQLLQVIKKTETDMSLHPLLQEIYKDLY
Peroxisome proliferator-activated receptor gamma/Nuclear receptor coactivator 2, sequence (Q15596 whole entry, further chain): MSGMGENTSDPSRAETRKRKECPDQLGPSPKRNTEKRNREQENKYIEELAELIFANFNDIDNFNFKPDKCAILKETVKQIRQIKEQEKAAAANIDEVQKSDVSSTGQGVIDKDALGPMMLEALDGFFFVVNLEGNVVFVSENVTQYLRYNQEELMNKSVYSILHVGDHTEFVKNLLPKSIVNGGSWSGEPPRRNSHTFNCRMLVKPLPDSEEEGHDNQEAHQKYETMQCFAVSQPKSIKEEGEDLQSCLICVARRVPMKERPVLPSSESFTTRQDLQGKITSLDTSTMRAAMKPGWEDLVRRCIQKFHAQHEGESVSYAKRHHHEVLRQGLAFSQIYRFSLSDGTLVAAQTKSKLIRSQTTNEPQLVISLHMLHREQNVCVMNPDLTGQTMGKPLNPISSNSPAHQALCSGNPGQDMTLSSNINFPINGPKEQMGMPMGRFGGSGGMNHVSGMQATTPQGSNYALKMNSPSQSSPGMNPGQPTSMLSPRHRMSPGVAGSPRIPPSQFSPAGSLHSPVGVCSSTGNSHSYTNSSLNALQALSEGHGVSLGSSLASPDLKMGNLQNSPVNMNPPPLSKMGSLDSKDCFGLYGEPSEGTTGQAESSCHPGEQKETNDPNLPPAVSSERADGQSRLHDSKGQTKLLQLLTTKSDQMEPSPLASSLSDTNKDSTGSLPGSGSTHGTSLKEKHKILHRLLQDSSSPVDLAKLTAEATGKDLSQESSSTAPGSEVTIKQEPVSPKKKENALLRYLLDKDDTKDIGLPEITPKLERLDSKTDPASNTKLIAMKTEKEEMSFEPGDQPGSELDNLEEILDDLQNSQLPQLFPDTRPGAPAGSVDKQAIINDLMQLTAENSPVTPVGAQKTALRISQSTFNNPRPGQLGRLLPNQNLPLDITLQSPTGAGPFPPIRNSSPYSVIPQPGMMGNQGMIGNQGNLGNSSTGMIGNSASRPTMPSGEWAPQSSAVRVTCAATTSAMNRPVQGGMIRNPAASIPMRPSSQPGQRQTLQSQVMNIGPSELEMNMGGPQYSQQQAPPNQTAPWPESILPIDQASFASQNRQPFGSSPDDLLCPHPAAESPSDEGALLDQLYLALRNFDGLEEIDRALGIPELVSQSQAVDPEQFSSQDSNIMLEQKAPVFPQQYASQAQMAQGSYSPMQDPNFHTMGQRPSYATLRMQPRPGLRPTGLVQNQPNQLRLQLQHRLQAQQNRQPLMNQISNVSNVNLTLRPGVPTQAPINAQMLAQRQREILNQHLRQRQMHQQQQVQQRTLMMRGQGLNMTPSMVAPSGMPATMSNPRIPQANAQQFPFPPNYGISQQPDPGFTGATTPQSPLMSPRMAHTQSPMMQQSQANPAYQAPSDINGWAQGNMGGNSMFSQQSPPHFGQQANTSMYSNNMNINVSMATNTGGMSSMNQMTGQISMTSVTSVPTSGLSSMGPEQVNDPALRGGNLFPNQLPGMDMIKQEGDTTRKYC

Cytochrome P450 2D6, sequence (P10635 whole entry): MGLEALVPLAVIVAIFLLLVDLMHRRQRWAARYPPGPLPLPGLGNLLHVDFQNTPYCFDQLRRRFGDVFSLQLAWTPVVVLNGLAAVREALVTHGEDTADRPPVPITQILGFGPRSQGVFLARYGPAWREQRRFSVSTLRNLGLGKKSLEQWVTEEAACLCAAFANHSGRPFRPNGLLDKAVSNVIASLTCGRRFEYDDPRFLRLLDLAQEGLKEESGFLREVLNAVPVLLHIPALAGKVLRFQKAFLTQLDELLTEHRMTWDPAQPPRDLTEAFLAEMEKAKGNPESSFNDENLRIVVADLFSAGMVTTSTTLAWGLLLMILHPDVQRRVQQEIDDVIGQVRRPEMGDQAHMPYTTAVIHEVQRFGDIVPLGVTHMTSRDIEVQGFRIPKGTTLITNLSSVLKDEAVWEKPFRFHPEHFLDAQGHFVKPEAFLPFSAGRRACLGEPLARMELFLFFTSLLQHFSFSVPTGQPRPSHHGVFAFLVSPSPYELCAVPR
Cytochrome P450 2C9, sequence (P11712 whole entry): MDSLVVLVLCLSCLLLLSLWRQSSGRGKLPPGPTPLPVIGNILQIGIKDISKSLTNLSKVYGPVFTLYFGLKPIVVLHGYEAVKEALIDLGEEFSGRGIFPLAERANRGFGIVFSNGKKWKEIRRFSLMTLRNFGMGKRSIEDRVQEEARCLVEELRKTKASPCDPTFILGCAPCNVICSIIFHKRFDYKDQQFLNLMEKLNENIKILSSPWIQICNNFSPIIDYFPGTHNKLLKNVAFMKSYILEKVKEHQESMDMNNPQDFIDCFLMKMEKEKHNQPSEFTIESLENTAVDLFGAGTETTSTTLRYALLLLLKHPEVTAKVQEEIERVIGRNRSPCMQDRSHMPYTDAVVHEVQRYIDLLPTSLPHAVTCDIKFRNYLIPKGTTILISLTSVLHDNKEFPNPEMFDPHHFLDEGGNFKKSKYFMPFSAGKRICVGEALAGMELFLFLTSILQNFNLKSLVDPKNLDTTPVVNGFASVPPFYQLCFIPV
Sphingosine 1-phosphate receptor 2, sequence (O95136 whole entry): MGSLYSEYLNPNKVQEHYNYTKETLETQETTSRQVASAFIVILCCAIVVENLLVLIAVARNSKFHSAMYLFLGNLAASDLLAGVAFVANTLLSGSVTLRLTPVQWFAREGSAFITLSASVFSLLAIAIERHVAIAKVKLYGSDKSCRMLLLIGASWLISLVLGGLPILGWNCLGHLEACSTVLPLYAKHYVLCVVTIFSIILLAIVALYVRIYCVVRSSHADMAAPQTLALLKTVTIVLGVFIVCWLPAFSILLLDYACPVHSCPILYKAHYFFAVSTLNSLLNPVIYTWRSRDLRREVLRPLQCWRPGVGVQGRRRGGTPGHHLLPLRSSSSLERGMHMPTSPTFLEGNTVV
Cytochrome P450 3A4, sequence (P08684 whole entry): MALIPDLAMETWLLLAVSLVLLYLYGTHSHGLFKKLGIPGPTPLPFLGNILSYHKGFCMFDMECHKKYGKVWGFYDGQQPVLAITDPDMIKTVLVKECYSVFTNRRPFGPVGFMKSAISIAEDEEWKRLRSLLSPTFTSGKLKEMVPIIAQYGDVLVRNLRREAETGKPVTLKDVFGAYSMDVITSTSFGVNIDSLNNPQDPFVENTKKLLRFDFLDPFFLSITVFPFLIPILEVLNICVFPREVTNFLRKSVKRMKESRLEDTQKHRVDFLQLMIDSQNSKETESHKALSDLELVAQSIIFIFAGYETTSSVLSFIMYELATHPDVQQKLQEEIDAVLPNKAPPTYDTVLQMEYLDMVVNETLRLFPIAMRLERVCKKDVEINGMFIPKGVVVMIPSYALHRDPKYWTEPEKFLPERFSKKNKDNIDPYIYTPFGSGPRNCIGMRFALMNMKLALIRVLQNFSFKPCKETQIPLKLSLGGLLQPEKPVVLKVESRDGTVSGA
X-box-binding protein 1, sequence (P17861 whole entry): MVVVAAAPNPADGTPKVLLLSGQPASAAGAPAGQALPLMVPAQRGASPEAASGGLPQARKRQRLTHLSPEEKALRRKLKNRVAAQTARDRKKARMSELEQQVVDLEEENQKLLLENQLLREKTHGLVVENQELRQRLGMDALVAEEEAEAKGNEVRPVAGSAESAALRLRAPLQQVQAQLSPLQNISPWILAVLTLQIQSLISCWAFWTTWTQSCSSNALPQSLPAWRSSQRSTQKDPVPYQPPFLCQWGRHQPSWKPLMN
Cytochrome P450 2C19, sequence (P33261 whole entry): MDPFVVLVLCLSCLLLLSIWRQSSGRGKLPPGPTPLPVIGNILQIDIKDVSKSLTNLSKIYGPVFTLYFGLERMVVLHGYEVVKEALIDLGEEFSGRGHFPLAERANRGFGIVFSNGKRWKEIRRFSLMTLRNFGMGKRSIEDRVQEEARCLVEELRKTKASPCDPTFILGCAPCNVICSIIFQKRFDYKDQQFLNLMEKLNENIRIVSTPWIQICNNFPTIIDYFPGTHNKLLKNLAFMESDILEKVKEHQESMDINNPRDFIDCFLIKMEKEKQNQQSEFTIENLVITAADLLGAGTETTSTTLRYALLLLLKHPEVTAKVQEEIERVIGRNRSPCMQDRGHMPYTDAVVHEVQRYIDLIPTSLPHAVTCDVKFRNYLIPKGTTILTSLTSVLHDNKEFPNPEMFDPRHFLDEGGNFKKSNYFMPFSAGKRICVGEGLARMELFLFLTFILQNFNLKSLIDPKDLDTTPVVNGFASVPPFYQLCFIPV

Question: With `COC(=O)Oc1c(Br)c(=O)oc2ccccc12` as the molecule, how does the IC50 [1] read?
Answer: The IC50 was > 50 µM (not active).

Question: For `Cn1c2c(c(=O)n(C)c1=O)C(C(F)(F)F)(C(F)(F)F)NC(c1ccc(Cl)cc1)=N2`, which AC50 [2] is on record?
Answer: The AC50 was 1.47 µM (active).

Question: What about the AC50 [3] of the same molecule?
Answer: Its AC50 is 15.8 µM (inconclusive).

Question: And the IC50 [4]?
Answer: The IC50 was > 80 µM (inactive).

Question: And the IC50 [5]?
Answer: Its IC50 is 2.72 µM (active).

Question: And the EC50 [6]?
Answer: Its EC50 is 2.61 µM (active).

Question: What about the IC50 [7] of the same molecule?
Answer: Its IC50 is 3.79 µM (active).

Question: What about the AC50 [8] of the same molecule?
Answer: Its AC50 is 0.756 µM (active).

Question: And the EC50 [9]?
Answer: Its EC50 is 0.383 µM (active).

Question: What about the AC50 [10] of the same molecule?
Answer: The AC50 was 17.8 µM (inconclusive).

Question: And the EC50 [11]?
Answer: The EC50 was 3.25 µM (active).

Question: And the AC50 [12]?
Answer: Its AC50 is 0.983 µM (active).

Question: And the AC50 [13]?
Answer: Its AC50 is 2.03 µM (active).

Question: And the EC50 [14]?
Answer: The EC50 was 0.628 µM (active).

Question: And the AC50 [15]?
Answer: Its AC50 is 2.82 µM (inconclusive).

Question: And the EC50 [16]?
Answer: Its EC50 is 2.83 µM (active).

Question: With `O=C(N/N=C/C1CC=CCC1)c1cc(Br)ccc1O` (stereo unspecified) as the molecule, how does the EC50 [17] read?
Answer: Its EC50 is > 50 µM (active).

Question: For `COc1cc(OC)cc([C@H](CNc2ncnc3c2ncn3[C@@H]2O[C@@H](CO)[C@H](O)[C@@H]2O)c2ccccc2C)c1`, which AC50 [18] is on record?
Answer: Its AC50 is 39.8 µM (inconclusive).

Question: What about the AC50 [19] of the same molecule?
Answer: The AC50 was 0.0158 µM (inconclusive).

Question: Which IC50 [20] does the source give for `COC(=O)c1ccc(NC(=O)CSc2n[nH]c(-c3ccncc3)n2)cc1` here?
Answer: Its IC50 is 17.6 µM (active).

Question: Which results are given for `CC1(c2ccc(OC(F)F)cc2)NC(=O)N(/N=C/c2c(O)ccc3ccccc23)C1=O` (stereo unspecified)?
Answer: Absolute IC50 (XBP1) [21]: 10 µM; EC50 [22]: > 53 µM (inactive)

Question: With `CC12C=C(/C=C/C=C/c3ccccc3)C(C)(C1)C(/C=C/c1ccccc1)CC2=O` (stereo unspecified) as the molecule, how does the AC50 [18] read?
Answer: The AC50 was 3.16 µM (inconclusive).

Question: Which results are given for `CCc1ccc(OCC(=O)NNC(=O)CSc2ncnc3sc(C)c(C)c23)cc1`?
Answer: EC50 [23]: 28.8 µM (not active); EC50 [24]: 33.8 µM (not active); EC50 [25]: 25.7 µM (not active)
